Laboratory results reported in patent US20230158034A1, “CO-TREATMENT WITH CDK4/6 AND CDK2 INHIBITORS TO SUPPRESS TUMOR ADAPTATION TO CDK2 INHIBITORS” (Pfizer Inc., priority 2020, published 2023).

Assays:
[1] = system: Rb, Nucleolin, Cdc6 and Nbs1 phosphorylation; assay: Immunofluorescence and western blotting of endogenous CDK2 substrates; assay type: cell-based, human; settings: for Rb phosphorylation: 1 hr palbociclib treatment
Description: Cells were fixed for 15 minutes with freshly prepared 4% paraformaldehyde, washed twice with PBS, and incubated with a blocking buffer (3% BSA in PBS) for 1 hr at room temperature. Permeabilization was carried out using 0.2% Triton-X 100 for 15 min at 4° C. Primary antibody was diluted in blocking buffer and incubated with cells overnight at 4° C. followed by three washes with 1×PBS. Secondary antibodies conjugated to Alexa Fluor 488, Alexa Fluor 546 or Alexa Fluor 647 were incubated for 1 hr followed by three washes with 1×PBS. DNA was stained using Hoechst 33342 dye for 10 minutes at 1:10000 (ThermoFisher H3570). Images were acquired on a Nikon Eclipse Ti or Ti2 microscope with a 10×0.45 NA objective. DNA content was determined by taking the integrated intensity of each cell's Hoechst signal. Cells were delineated as 3-4N DNA content by plotting a histogram of DNA content and drawing a threshold and the end of the 2N peak.
Lysates were prepared using 1×LDS sample buffer (ThermoFisher NP007) using equal numbers of cells. Proteins were separated using NuPAGE precast polyacrylamide gels (ThermoFisher NP0301). Total protein was quantified using Azure Red Dye (Azure Biosystems AC2124) and was used to normalize the signal from antibodies of interest. Primary antibodies used are specified under the “Antibodies” section. HRP-conjugated or IR700 and IR800 labeled fluorescent secondary antibodies were used for visualization (Cell Signaling Technology 7074 and 7076).

[2] = system: CDK2 T-loop phosphorylation, Cyclin E1, p21; assay: Western blots of palbociclib-treated lung tumors; assay type: in vivo, mouse; settings: palbociclib 70 mg/kg QD for 28 days
Description: To test the potential compensatory relationship between CDK2 and CDK4/6 in vivo, an established mouse lung tumor model driven by KRAS^G12V and TRP53 mutations was used. Kras^+/LSLG12V, Trp53^L/L mice intra-nasally infected with adenoviral particles encoding Cre recombinase developed lung tumors with a latency of 5 months. Once tumor development was detected by CT scans, animals were treated with either vehicle or palbociclib (70 mg/kg QD) for 28 days and tumor volumes were subsequently measured by CT scans at the end of the treatment period.
For western blots in FIG. 7B, protein extraction was performed in protein lysis buffer (50 mM Tris-HCl pH 7.4, 150 mM NaCl, 0.5% NP-40) supplemented with a cocktail of protease and phosphatase inhibitors (complete Mini, Roche, 11836153001; Phosphatase Inhibitor Cocktail 2 and 3, Sigma, P5726 and P0044). Protein concentrations were measured using Bradford (Bio-Rad) method. […] of protein extracts obtained from tumor tissue were separated on NUPAGE™ 4-12% Bis-Tris Midi gels (Invitrogen), transferred to a nitrocellulose membrane (GE Healthcare) and blotted with primary antibodies. Primary antibodies were detected with goat secondary antibodies directed against mouse or rabbit IgGs (HRP, Dako, and Alexa Fluor 680, Invitrogen) and visualized with ECL Western Blot detection solution (GE Healthcare).

[3] = system: phosphorylated peptides containing a minimal CDK consensus motif (SP or TP) in MCF7 cells; assay: Phospho-proteomics (mass spectrometry) of CDK substrate phosphorylation after PF3600; assay type: cell-based, Homo sapiens
Description: CDK2 substrate dynamics were globally assessed through phospho-proteomics.
Phospho-peptide enrichment was performed as previously described (Lapek et al., 2017b). Lyophilized phospho-peptides were then TMT-labeled and fractionated by reverse phase basic pH fractionation and fractions combined as previously described (Edwards and Haas, 2016). Fractions were lyophilized and stored at […] until MS analysis. For LC-MS2/MS3 analysis, samples were reconstituted in 10 μL of 5% acetonitrile in 5% formic acid and 8 μL of each fraction was injected on the Orbitrap Fusion Lumos for analysis.
Peptides were eluted on a 165-minute gradient of 7-32% solvent B (80% acetonitrile in 0.1% formic acid) at 300 nL/min on a PepMap RSLC C18 column (2 μm, 100 Å, 75 μm×50 cm) heated to 60° C. Spectra were acquired in Top Speed mode, with a 5 second cycle. MS1 data were collected in the Orbitrap at 60000 resolution across a range of 500-1500 m/z. An automatic gain control (AGC) target of 2×10^5 was used with a maximum injection time of 100 ms. MS2 data were acquired in the ion trap with a rapid scan rate, maximum injection time of 70 ms, and an AGC target of 2×10^4. The quadrupole was used for isolation, with an isolation window of 0.5 m/z. […]
Data were normalized in a multistep process as previously described (Lapek et al., 2017a). […] All phospho data was processed and analyzed at the peptide level.

[4] = Half-life of PF3600 in cells; assay type: in vitro ADME

## CC(=O)c1c(C)c2cnc(Nc3ccc(N4CCNCC4)cn3)nc2n(C2CCCC2)c1=O [palbociclib]
[1]; cells with 2N DNA content
  Rb phosphorylation: dephosphorylation of Rb
[1]; cells with 3-4N DNA content
  Rb phosphorylation: no effect
[2]
  CDK2 T-loop phosphorylation and Cyclin E1 in tumors (western blot): upregulation of CDK2 T-loop phosphorylation and Cyclin E1
  p21 in tumors (western blot): significant downregulation of the CDK inhibitor p21

## C[C@@]1(O)CCC[C@H]1n1c(=O)c(C(F)F)cc2cnc(NC3CCN(S(C)(=O)=O)CC3)nc21 [PF3600, 6-(difluoromethyl)-8-[(1R,2R)-2-hydroxy-2-methylcyclopentyl]-2-{[1-(methylsulfonyl)-piperidin-4-yl]amino}pyrido[2,3-d]pyrimidin-7(8H)-one]
[3]; 25 nM PF3600, 1 hr
  number of SP/TP peptides whose phosphorylation was significantly reduced (p<0.05): 40 peptides
[3]; 25 nM PF3600, 24 hr
  fate of the reduced phosphopeptides at 24 hr: vast majority of these rebounded to control levels
[1]; 100 nM PF3600, MCF10A cells with 3-4N DNA content
  Rb and Nucleolin phosphorylation by immunofluorescence: transient reduction in Rb and Nucleolin phosphorylation followed by a rebound
[4]
  half-life: ~30 h
